How the values were obtained:
Assay type in all cases: in vivo
[1] = test system: Meloidogyne incognita J2s; assay: Tomato invasion assay, M. incognita J2s; conditions: 100 μM uNLP, 24 h, tomato seedlings, normalised to negative control
Method: (§1) Predicted uNLPs from both M. incognita and G. pallida were synthesised by EZBiolab and dissolved into pH adjusted ddH2O to make a 5 mM stock which was aliquoted and stored at −20° C. J2s of both M. incognita and G. pallida were incubated for 24 hours in 200 μl of each peptide in a 24 well plate (SPL Lifesciences, South Korea) at a defined concentration.
(§2) Tomato seeds were sterilised with 2.5% NaOCl for 15 minutes, washed 5 times in ddH2O and germinated on 0.5% Murashige and Skoog plates at 23° C. […] Invasion assays were performed by mixing 500 pre-treated M. incognita or G. pallida J2s with agar slurry and a single tomato seedling (2 days post germination) in a 6 well plate. Assays were left at 23° C. for 24 hours in the case of M. incognita and at 18° C. for 24 hours in the case of G. pallida under a 16 hour light and 8 hour darkness cycle. Seedlings were stained using acid fuschin [69] and the number of nematodes within the roots counted.

[2] = test system: Meloidogyne incognita J2s; assay: Serotonin-induced stylet thrusting assay, M. incognita J2s; conditions: 100 μM uNLP, 24 h, 5 mM serotonin
Method: as §1
(§3) Stylet thrusting assays where performed by incubating 100 M. incognita or G. pallida J2s for 15 minute in 5 mM or 2 mM serotonin (Sigma Aldrich, USA), respectively. J2s were placed on a glass slide and stylet thrusts were counted for randomly selected J2s, for 1 minute each. Counting took place for a maximum of 15 minutes. Longer incubations yielded inconsistent results. At least 30 J2s were counted for each neuropeptide treatment.

[3] = test system: Globodera pallida infective stage juveniles (J2s); assay: Chemosensory (chemotaxis) assay towards root exudate, G. pallida J2s; conditions: 100 μM uNLP, 24 h, mean+/-SEM
Method: as §1
(§4) A 60 mm Petri dish was divided into two segments, a positive and a negative side, with a 0.5 cm ‘dead zone’ either side of the centre point. The petri dish was filled with 15 ml of 0.25% w/v agar which was allowed to solidify. 3 ml of 0.25% w/v agar slurry in spring water (pH 7, agitated with a magnetic stirrer for several hours to give a smooth consistency) was added to the petri dish and spread evenly over the surface. Root diffusate (attractant) and water only (control) 0.25% agar plugs were embedded in the agar slurry, either side of the assay arena. Root diffusate was collected from 10 tomato plants, aged 3-6 weeks in 1 litre pots, by pouring 500 ml of ddH2O through the soil three times. Diffusate from each plant was combined, filter sterilised and stored at 4° C. for a maximum of 1 month. Root diffusate agar plugs were made by melting 1.25% agar in ddH2O, cooling to 50° C. before mixing with 4 parts of root diffusate. The agar was then allowed to solidify at room temperature. 100 uNLP pre-treated M. incognita or G. pallida J2s were added by pipette to the centre of the plate. J2s which moved out of the ‘dead zone’ after 3 hours were counted and their location (+/−) scored. The distribution of J2s were used to create a chemotaxis index for each plate, which formed one replicate, a total of 10 replicates where completed for each uNLP treatment.

[4] = test system: Meloidogyne incognita infective stage juveniles (J2s); assay: Chemosensory (chemotaxis) assay towards root exudate, M. incognita J2s; conditions: M. incognita J2s, 100 μM uNLP, 24 h; mean+/-SEM
Method: as §1, §4

[5] = test system: Globodera pallida J2s; assay: Tomato invasion assay, G. pallida J2s; conditions: G. pallida J2s, 100 μM uNLP, 24 h; tomato seedlings
Method: as §1, §2

[6] = test system: Globodera pallida J2s; assay: Serotonin-induced stylet thrusting assay, G. pallida J2s; conditions: 100 μM uNLP, 24 h, 2 mM serotonin
Method: as §1, §3

AAENFDENNDIN [Mi-NLP-18d, predicted unamidated NLP of Meloidogyne incognita]
host invasion compared to controls [1]: 34.21%+/−12
rate of serotonergic-induced stylet thrusting compared with controls [2]: 147.7%+/−16.05

AFDLFTGPGFTGMD [Gp-NLP-15h, predicted unamidated NLP of Globodera pallida]
chemotaxis index (Cl) towards root exudate [3]: −0.06784+/−0.1415

AFDRLDNSFMLL [Mi-NLP-8d, predicted unamidated NLP of Meloidogyne incognita]
host invasion compared to controls [1]: 29.31%+/−12.57

AFDRLDVSPFDFDAMT [Mi-NLP-8a, predicted unamidated NLP of Meloidogyne incognita]
chemotaxis index (Cl) towards root exudate [4]: 0.018+/−0.3438
rate of serotonergic-induced stylet thrusting compared with controls [2]: 126.1%+/−9.278

AFDSFAGNGFTGFD [Mi-NLP-15f, predicted unamidated NLP of Meloidogyne incognita]
chemotaxis index (Cl) towards root exudate [4]: −0.05+/−0.3547
rate of serotonergic-induced stylet thrusting compared with controls [2]: 75.18%+/−9.199

AFDSFGTPGFTGFD [Mi-NLP-15a, predicted unamidated NLP of Meloidogyne incognita]
chemotaxis index (Cl) towards root exudate [4]: −0.01067+/−0.06497

AFDSFTGPGFTGMD [Gp-NLP-15g, predicted unamidated NLP of Globodera pallida]
chemotaxis index (Cl) towards root exudate [3]: −0.2208 +/−0.1568

AGARAFQRPDFDDASYEL [Mi-NLP-9a, predicted unamidated NLP of Meloidogyne incognita]
host invasion compared to controls [1]: 45.59%+/−22.97

AGGRLFRMVDLPDGDDFVPEG [Gp-NLP-21e, predicted unamidated NLP of Globodera pallida]
chemotaxis index (Cl) towards root exudate [3]: −0.3804+/−0.2762

AGGRYFMRHFDDSPFAGWMA [Gp-NLP-21g, predicted unamidated NLP of Globodera pallida]
chemotaxis index (Cl) towards root exudate [3]: −0.01357+/−0.1854
host invasion relative to controls [5]: 214.8%+/−30.31

ALDILDGDDFTGFS [Gp-NLP-14e, predicted unamidated NLP of Globodera pallida]
chemotaxis index (Cl) towards root exudate [3]: −0.0641+/−0.2329

ALDILESDDFGGF [Gp-NLP-14a, predicted unamidated NLP of Globodera pallida]
chemotaxis index (Cl) towards root exudate [3]: −0.3765+/−0.1039

ALDLMEGDGFGGGFD [Mi-NLP-14b, predicted unamidated NLP of Meloidogyne incognita]
chemotaxis index (Cl) towards root exudate [4]: −0.1155+/−0.1472

ALDMLEGDDFIGMQ [Mi-NLP-14a, predicted unamidated NLP of Meloidogyne incognita]
host invasion compared to controls [1]: 44.61%+/−12.25
rate of serotonergic-induced stylet thrusting compared with controls [2]: 61.6%+/−7.86

ALDMMEGDDFIGL [Mi-NLP-14c, predicted unamidated NLP of Meloidogyne incognita]
host invasion compared to controls [1]: 20.96%+/−11.12
rate of serotonergic-induced stylet thrusting compared with controls [2]: 134.7%+/−19.51

FAPRQFAFA [Mi-NLP-18a, predicted unamidated NLP of Meloidogyne incognita]
chemotaxis index (Cl) towards root exudate [4]: −0.1353+/−0.1129
host invasion compared to controls [1]: 25.88%+/−8.695

FNDDELSSLPFNFEYFPSLDTH [Mi-NLP-8b, predicted unamidated NLP of Meloidogyne incognita]
host invasion compared to controls [1]: 61.38%+/−11.56

GGARAFAKLEE [Mi-NLP-9c, predicted unamidated NLP of Meloidogyne incognita]
rate of serotonergic-induced stylet thrusting compared with controls [2]: 143.2%+/−9.878

GGARAFFGDADGPFNSASYWAP [Gp-NLP-21h, predicted unamidated NLP of Globodera pallida]
chemotaxis index (Cl) towards root exudate [3]: −0.01564+/−0.08072
serotonergic-induced stylet thrusting relative to control groups [6]: 116.8%+/−4.876

GGARAFNFFAPDE [Gp-NLP-21b, predicted unamidated NLP of Globodera pallida]
chemotaxis index (Cl) towards root exudate [3]: −0.117 +/−0.1936
host invasion relative to controls [5]: 6.897%+/−3.855

GGARAFNFFAPPDE [Gp-NLP-21a, predicted unamidated NLP of Globodera pallida]
host invasion relative to controls [5]: 178.9%+/−48.52

GGARAFNGAEETLLNVANLA [Gp-NLP-21i, predicted unamidated NLP of Globodera pallida]
chemotaxis index (Cl) towards root exudate [3]: −0.1733 +/−0.02667
serotonergic-induced stylet thrusting relative to control groups [6]: 117.7%+/−4.497

GGARPFYGFFGGGEGTW [Mi-NLP-9e, predicted unamidated NLP of Meloidogyne incognita]
host invasion compared to controls [1]: 48.68%+/−10.87

GGARPFYGGGYMDGTW [Gp-NLP-21f, predicted unamidated NLP of Globodera pallida]
chemotaxis index (Cl) towards root exudate [3]: 0.1456+/−0.1232

GGARTFLVGE [Mi-NLP-9b, predicted unamidated NLP of Meloidogyne incognita]
chemotaxis index (Cl) towards root exudate [4]: −0.07417+/−0.154

GGTRAFNFFVSDALPSSYE [Gp-NLP-21c, predicted unamidated NLP of Globodera pallida]
host invasion relative to controls [5]: 14.07%+/−4.655

GMRNFAFA [Mi-NLP-18b, predicted unamidated NLP of Meloidogyne incognita]
host invasion compared to controls [1]: 47.81%+/−6.008
rate of serotonergic-induced stylet thrusting compared with controls [2]: 146.6%+/−7.609

SAFDSFVGRGFTGMD [Mi-NLP-15e, predicted unamidated NLP of Meloidogyne incognita]
chemotaxis index (Cl) towards root exudate [4]: −0.01767+/−0.09428
host invasion compared to controls [1]: 38.71%+/−5.963

SFDSFTGSGFTGLD [Gp-NLP-15c, predicted unamidated NLP of Globodera pallida]
chemotaxis index (Cl) towards root exudate [3]: −0.227+/−0.0776
serotonergic-induced stylet thrusting relative to control groups [6]: 56.07%+/−9.441

SFDSFVGKGFTGMD [Mi-NLP-15c, predicted unamidated NLP of Meloidogyne incognita]
chemotaxis index (Cl) towards root exudate [4]: −0.359+/−0.277

SFDSLTGPGFTGLDT [Gp-NLP-15a, predicted unamidated NLP of Globodera pallida]
chemotaxis index (Cl) towards root exudate [3]: −0.1451 +/−0.221

SFGDYPFGSRTFAFA [Mi-NLP-18c, predicted unamidated NLP of Meloidogyne incognita]
rate of serotonergic-induced stylet thrusting compared with controls [2]: 175.5%+/−20.72

SGIQTFRDDYDEKQAGEL [Gp-NLP-21d, predicted unamidated NLP of Globodera pallida]
host invasion relative to controls [5]: 2.01%+/−1.545

SSLASGRIGFRPA [Mi-NLP-2, predicted unamidated NLP of Meloidogyne incognita]
rate of serotonergic-induced stylet thrusting compared with controls [2]: 164.4%+/−20.3

SSQFGGENSFARFAFA [Mi-NLP-18e, predicted unamidated NLP of Meloidogyne incognita]
host invasion compared to controls [1]: 46.49%+/−7.391

From patent publication US20200123208A1, “PEPTIDES AND NEMATICIDAL COMPOSITIONS” (priority 2017, published 2020)
